Counter-ions that a name gives are not always drawn. Each block holds one compound with its values, some of them ahead of it.
How the values were obtained:
[1] = target: T1, β-lactamase from E. coli JT4 (Escherichia coli, UniProt P62593); assay: β-lactamase inhibition by the method of Belgian Pat. No. 827331; assay type: biochemical; conditions: read-out: I50 (converted)
T1 construct: β-lactamase from E. coli JT4; endogenous in cells; host or cells: E. coli JT4

[2] = system: certain gram-positive and gram-negative organisms; assay: antibacterial activity, microtitre method (general statement); assay type: cell-based; conditions: substantially pure
From the text: It is likely that MM 17880 has a molecular weight between 300 and 500. […] Thus MM 17880 has the molecular formula C11-14 […]-23 O8-11 N2 S2.

[3] = system: certain β-lactamase producing strains of Staphylococcus aureus and Klebsiella aerogenes; assay: synergy with β-lactam antibiotics (general statement); assay type: cell-based; conditions: substantially pure; with ampicillin, amoxycillin and the like
Klebsiella aerogenes A [4] = assay: activity in combination with ampicillin and cephaloridine (synergy, MIC); assay type: cell-based
Description: (§1) The antibacterial activity of the material produced as above was determined by the microtitre method using the overnight inoculum of the test organism at 0.2% concentration. The synergistic activity of the di-sodium salt of MM 17880 in combination with ampicillin and with cephaloridine against Klebsiella aerogenes and Staphylococcus aureus Russell are shown in Table 3.

[5] = system: Staphylococcus aureus Russell; assay: as above; assay type: cell-based
Description: as §1

Bacillus subtilis = assay: antibacterial activity (MIC), microtitre method, heavy inoculum; assay type: cell-based; conditions: overnight inoculum at 0.2%
Description: as §1
(§2) Microtitre - heavy inoculum

[6] = system: Citrobacter freundii Mantio; assay: as above; assay type: cell-based; conditions: overnight inoculum at 0.2%
Description: as §1, §2

E. coli 10418 = assay: as above; assay type: cell-based; conditions: overnight inoculum at 0.2%
Description: as §1, §2

E. coli JT4 = assay: as above; assay type: cell-based; conditions: overnight inoculum at 0.2%
Description: as §1, §2

Klebsiella aerogenes A [7] = assay: as above; assay type: cell-based; conditions: overnight inoculum at 0.2%
Description: as §1, §2

[8] = system: Klebsiella aerogenes Ba95; assay: as above; assay type: cell-based; conditions: overnight inoculum at 0.2%
Description: as §1, §2

Proteus mirabilis 13 = assay: as above; assay type: cell-based; conditions: overnight inoculum at 0.2%
Description: as §1, §2

Proteus morganii 1580 = assay: as above; assay type: cell-based; conditions: overnight inoculum at 0.2%
Description: as §1, §2

Proteus retigeri VM16 = assay: as above; assay type: cell-based; conditions: overnight inoculum at 0.2%
Description: as §1, §2

Proteus vulgaris W090 = assay: as above; assay type: cell-based; conditions: overnight inoculum at 0.2%
Description: as §1, §2

Pseudomonas aeruginosa A = assay: as above; assay type: cell-based; conditions: overnight inoculum at 0.2%
Description: as §1, §2

[9] = system: Salmonella typhimurium CT10; assay: as above; assay type: cell-based; conditions: overnight inoculum at 0.2%
Description: as §1, §2

Serratia marcescens US1 = assay: as above; assay type: cell-based; conditions: overnight inoculum at 0.2%
Description: as §1, §2

[10] = system: Staphylococcus aureus Oxford; assay: as above; assay type: cell-based; conditions: overnight inoculum at 0.2%
Description: as §1, §2

[11] = system: Staphylococcus aureus Russell; assay: as above; assay type: cell-based; conditions: overnight inoculum at 0.2%
Description: as §1, §2

Streptococcus faccalis I = assay: as above; assay type: cell-based; conditions: overnight inoculum at 0.2%
Description: as §1, §2

[12] = system: Streptococcus pyrogenes CN10; assay: as above; assay type: cell-based; conditions: overnight inoculum at 0.2%
Description: as §1, §2

[13] = stability of salts and unsalted acid; assay type: physicochemical; conditions: salts vs unsalted acid; in solution
Klebsiella aerogenes = assay: hole in plate method on agar seeded with Klebsiella aerogenes (arbitrary units); assay type: cell-based; conditions: final solid of Example 1, sodium salt
Description: 300 ml. of 10% Pluronic L81 in soya-bean oil was added to prevent foaming. The fermentation was harvested after 48 hours and clarified by centrifugation. The clarified brew was arbitarily assigned an activity of 340 units/ml when assayed by the conventional hole in plate method on agar seeded with Klebsiella aerogenes.

T1 sequence (P62593 24-286 limits assumed): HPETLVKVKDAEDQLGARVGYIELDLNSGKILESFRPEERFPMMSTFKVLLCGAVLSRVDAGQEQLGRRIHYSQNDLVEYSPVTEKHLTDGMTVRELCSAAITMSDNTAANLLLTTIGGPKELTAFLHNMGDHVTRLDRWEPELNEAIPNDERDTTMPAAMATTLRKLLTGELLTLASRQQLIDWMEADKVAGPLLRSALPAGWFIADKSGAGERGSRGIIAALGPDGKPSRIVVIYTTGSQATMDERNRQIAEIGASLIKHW

Structure (SMILES): CC(=O)NCCSC1=C(C(=O)O)N2C(=O)C(C(C)OS(=O)(=O)O)C2C1 (stereo not shown) [di-sodium salt of MM 17880]
IC50 [1]: 0.634 nM | level of antibacterial activity [2]: good level of antibacterial activity | synergy with β-lactam antibiotics [3]: able to synergyse the anti-bacterial activity of β-lactam antibiotics

Structure (SMILES): O=C(Cc1cccs1)N[C@@H]1C(=O)N2C(C(=O)[O-])=C(C[n+]3ccccc3)CS[C@H]12 [Cephaloridine, cephaloridine]
MIC (Klebsiella aerogenes A [4]; compound alone): 5.0 µg/mL | MIC ([5]; compound alone): 1.25 µg/mL

Structure (SMILES): CC(=O)NCCSC1=C(C(=O)O)N2C(=O)C(C(C)OS(=O)(=O)O)C2C1 (stereo not shown) [MM 17880]
MIC (Bacillus subtilis): 0.2 µg/mL | MIC [6]: 3.1 µg/mL | MIC (E. coli 10418): 0.1 µg/mL | MIC (E. coli JT4): 3.1 µg/mL | MIC (Klebsiella aerogenes A [7]): 0.8 µg/mL | MIC [8]: 12.5 µg/mL | MIC (Proteus mirabilis 13): 1.6 µg/mL | MIC (Proteus morganii 1580): 1.6 µg/mL | MIC (Proteus retigeri VM16): 0.2 µg/mL | MIC (Proteus vulgaris W090): 0.2 µg/mL | MIC (Pseudomonas aeruginosa A): > 50 µg/mL | MIC [9]: 0.2 µg/mL | MIC (Serratia marcescens US1): 0.4 µg/mL | MIC [10]: 0.4 µg/mL | MIC [11]: 0.4 µg/mL | MIC (Streptococcus faccalis I): 6.2 µg/mL | MIC [12]: < 0.01 µg/mL | MIC (Klebsiella aerogenes A [4]): 0.2 µg/mL | MIC [5]: 3.1 µg/mL | stability [13]: tends to decompose in solution | activity (assayed, arbitrary units) (Klebsiella aerogenes): 16,000 units/mg

MIC (Klebsiella aerogenes A [4]): 250 µg/mL | MIC [5]: 500 µg/mL
Structure (SMILES): CC1(C)S[C@@H]2[C@H](NC(=O)[C@H](N)c3ccccc3)C(=O)N2[C@H]1C(=O)O [Ampicillin, ampicillin]
